We go through 34 compounds from patent US7741493B2, “Heterocyclic compounds as P2X7 ion channel blockers” (Aventis Pharmaceuticals Inc., priority 2003, dated 2010).

The target of this assay is T1, P2X7 (Homo sapiens, UniProt Q99572).
T1 sequence (Q99572 1-595): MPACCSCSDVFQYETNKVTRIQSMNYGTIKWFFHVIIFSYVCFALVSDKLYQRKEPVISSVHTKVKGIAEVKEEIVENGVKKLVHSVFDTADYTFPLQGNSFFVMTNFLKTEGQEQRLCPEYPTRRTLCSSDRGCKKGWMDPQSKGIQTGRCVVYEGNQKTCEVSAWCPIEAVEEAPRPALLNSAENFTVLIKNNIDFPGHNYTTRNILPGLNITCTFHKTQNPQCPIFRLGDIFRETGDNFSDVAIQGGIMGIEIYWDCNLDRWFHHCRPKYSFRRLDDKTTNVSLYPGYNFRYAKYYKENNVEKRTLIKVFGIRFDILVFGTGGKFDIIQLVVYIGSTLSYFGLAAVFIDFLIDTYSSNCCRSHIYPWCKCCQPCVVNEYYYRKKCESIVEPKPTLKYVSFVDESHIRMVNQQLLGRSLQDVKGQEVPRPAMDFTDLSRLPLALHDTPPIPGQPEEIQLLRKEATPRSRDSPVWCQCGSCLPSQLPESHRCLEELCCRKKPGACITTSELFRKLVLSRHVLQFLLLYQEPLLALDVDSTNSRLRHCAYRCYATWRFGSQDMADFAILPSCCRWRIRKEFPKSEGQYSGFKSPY
The assay is described as follows: YO-PRO-1 dye uptake assay in U373 cells stably expressing P2X7. Type of assay: cell-based. Also on record: The complete open reading frame of human P2X7 was amplified from Incyte clone 148057; expressed in transfected cells. The note with it: dye uptake through P2X7, U373 cells, 300 μM BzATP, 5 μM YO-PRO-1, test compounds 30 nM to 3 μM. The method in brief: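 U373 cells stably expressing human P2X7 preincubated 20 min at 37° C. with compound (30 nM to 3 μM) in Mg/Ca-free HBSS. YO-PRO-1 (5 μM final) and BzATP (300 μM final) then added for 1.5 h at 37° C.; dye-uptake fluorescence compared with compound-free control.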

Structures can show the parent of a compound that is named as a salt. Where two headings read alike, the source gives them in different places.

As a reminder, the IC50 is the concentration that inhibits the measured activity by half.

As to `c1ccc(C2N=C(C3Cc4ccccc4C3)NC2c2ccccc2)cc1` (stereo not shown) [2-indan-2-yl-4,5-diphenyl-4,5-dihydro-1H-imidazole trifluoroacetate], the IC50 (read-out: IC50) amounted to 50 nM.
For `c1ccc([C@H]2NC(CC3Cc4ccccc4C3)=N[C@H]2c2ccccc2)cc1` [2-indan-2-ylmethyl-cis-4,5-diphenyl-4,5-dihydro-1H-imidazole trifluoroacetate], the IC50 (read-out: IC50) worked out at 240 nM.
The same measure, in the same setting: under `Fc1cc(CNC2=N[C@@H](c3ccccc3)[C@@H](c3ccccc3)N2)cc(F)c1F` [(cis-4,5-Diphenyl-4,5-dihydro-1H-imidazol-2-yl)-(3,4,5-trifluorobenzyl)amine hydrochloride] stands 77 nM; under `Fc1cc(F)cc(CNC2=N[C@@H](c3ccccc3)[C@@H](c3ccccc3)N2)c1` [(cis-4,5-Diphenyl-4,5-dihydro-1H-imidazol-2-yl)-(3,5-difluorobenzyl)amine hydrochloride], 102 nM.
For the compound `Fc1cccc(CNC2=N[C@@H](c3ccccc3)[C@@H](c3ccccc3)N2)c1` [(cis-4,5-Diphenyl-4,5-dihydro-1H-imidazol-2-yl)-(3-fluorobenzyl)amine hydrochloride], for the setting “read-out: IC50”, the IC50 stood at 89 nM.
Consider `Fc1ccc(CNC2=N[C@@H](c3ccccc3)[C@@H](c3ccccc3)N2)cc1` [(cis-4,5-Diphenyl-4,5-dihydro-1H-imidazol-2-yl)-(4-fluorobenzyl)amine hydrochloride], for which the IC50 (read-out: IC50) was found to be 96 nM.
For the compound `c1ccc([C@H]2NC(NCC3CCCCC3)=N[C@H]2c2ccccc2)cc1` [(cis-4,5-Diphenyl-4,5-dihydro-1H-imidazol-2-yl)-(cyclohexylmethyl)amine hydrochloride], the IC50 (read-out: IC50) worked out at 124 nM.
The same measure, in the same setting: for `CN(Cc1ccccc1)C1=N[C@@H](c2ccccc2)[C@@H](c2ccccc2)N1` [(cis-4,5-Diphenyl-4,5-dihydro-1H-imidazol-2-yl)-N-methylbenzylamine hydrochloride] the value was 147 nM; for `Fc1ccccc1CCNC1=N[C@@H](c2ccccc2)[C@@H](c2ccccc2)N1` [(cis-4,5-Diphenyl-4,5-dihydro-1H-imidazol-2-yl)-[2-(2-fluorophenyl)ethyl]amine hydrochloride], 87 nM; for `Fc1ccc(CNC2=N[C@@H](c3ccccc3F)[C@@H](c3ccccc3F)N2)cc1` [(cis-4,5-bis-(2-Fluorophenyl)-4,5-dihydro-1H-imidazol-2-yl)-(4-fluorobenzyl)amine hydrochloride], 390 nM.
Still for that read-out and setting: for `Fc1ccccc1[C@H]1NC(NCc2ccccc2)=N[C@H]1c1ccccc1F` [(cis-4,5-bis-(2-Fluorophenyl)-4,5-dihydro-1H-imidazol-2-yl)-benzylamine hydrochloride] the value was 531 nM.
In the case of `c1ccc(CNCC2=N[C@@H](c3ccccc3)[C@@H](c3ccccc3)N2)cc1` [[(cis-4,5-Diphenyl-4,5-dihydro-1H-imidazol-2-yl)methyl]benzylamine ditrifluoroacetate], half-maximal inhibition (IC50 (nM)) (IC50) was put at 318 nM.
In the case of `Fc1cccc(CNC2=N[C@@H](c3ccccc3Br)[C@@H](c3ccccc3Br)N2)c1` [[cis-4,5-bis-(2-Bromophenyl)-4,5-dihydro-1H-imidazol-2-yl]-(3-fluorobenzyl)amine hydrochloride], under “read-out: IC50”, the IC50 was 782 nM.
As for `Fc1ccc(CNC2=N[C@@H](c3ccccc3Br)[C@@H](c3ccccc3Br)N2)cc1` [[cis-4,5-bis-(2-Bromophenyl)-4,5-dihydro-1H-imidazol-2-yl]-(4-fluorobenzyl)amine hydrochloride], the IC50 (read-out: IC50) is 898 nM.
Consider `Fc1ccc(CNC2=N[C@@H](c3ccccc3Cl)[C@@H](c3ccccc3Cl)N2)cc1F` [[cis-4,5-bis-(2-Chlorophenyl)-4,5-dihydro-1H-imidazol-2-yl]-(3,4-difluorobenzyl)-amine hydrochloride], for which the IC50 (read-out: IC50) is 378 nM.
The same measure, in the same setting: for `Fc1cccc(CNC2=N[C@@H](c3ccccc3Cl)[C@@H](c3ccccc3Cl)N2)c1` [[cis-4,5-bis-(2-Chlorophenyl)-4,5-dihydro-1H-imidazol-2-yl]-(3-fluorobenzyl)amine hydrochloride] the value was 592 nM; for `Fc1ccc(CNC2=N[C@@H](c3ccccc3Cl)[C@@H](c3ccccc3Cl)N2)cc1` [[cis-4,5-bis-(2-Chlorophenyl)-4,5-dihydro-1H-imidazol-2-yl]-(4-fluorobenzyl)amine hydrochloride], 624 nM.
For `Clc1ccccc1[C@H]1NC(NCc2ccccc2)=N[C@H]1c1ccccc1Cl` [[cis-4,5-bis-(2-Chlorophenyl)-4,5-dihydro-1H-imidazol-2-yl]-benzylamine hydrochloride], for the setting “read-out: IC50”, the IC50 came out at 925 nM.
As to `Fc1ccc(CNC2=N[C@@H](c3ccccc3F)[C@@H](c3ccccc3F)N2)cc1F` [[cis-4,5-bis-(2-Fluorophenyl)-4,5-dihydro-1H-imidazol-2-yl]-(3,4-difluorobenzyl)-amine hydrochloride], the IC50 (read-out: IC50) stood at 312 nM.
`Cc1cccc(CNC2=N[C@@H](c3ccccc3F)[C@@H](c3ccccc3F)N2)c1` [[cis-4,5-bis-(2-Fluorophenyl)-4,5-dihydro-1H-imidazol-2-yl]-(3-methylbenzyl)amine hydrochloride]: the IC50 (read-out: IC50) was 379 nM.
On to `Cc1ccccc1[C@H]1NC(NCc2ccc(F)c(F)c2)=N[C@H]1c1ccccc1C` [[cis-4,5-bis-(2-Methylphenyl)-4,5-dihydro-1H-imidazol-2-yl]-(3,4-difluorobenzyl)-amine hydrochloride], for which the IC50 (read-out: IC50) stood at 77 nM.
`Cc1ccccc1[C@H]1NC(NCc2cccc(F)c2)=N[C@H]1c1ccccc1C` [[cis-4,5-bis-(2-Methylphenyl)-4,5-dihydro-1H-imidazol-2-yl]-(3-fluorobenzyl)amine hydrochloride]: where the note is “read-out: IC50”, the IC50 turned out to be 121 nM.
Take `Cc1ccccc1[C@H]1NC(NCc2ccc(F)cc2)=N[C@H]1c1ccccc1C` [[cis-4,5-bis-(2-Methylphenyl)-4,5-dihydro-1H-imidazol-2-yl]-(4-fluorobenzyl)amine hydrochloride]: the IC50 (read-out: IC50) worked out at 139 nM.
`Cc1ccccc1[C@H]1NC(NCc2ccccc2)=N[C@H]1c1ccccc1C` [[cis-4,5-bis-(2-Methylphenyl)-4,5-dihydro-1H-imidazol-2-yl]-benzylamine hydrochloride]: the IC50 (read-out: IC50) is 167 nM.
Turning to `Fc1ccc(CNC2=N[C@@H](c3cccc(Cl)c3)[C@@H](c3cccc(Cl)c3)N2)cc1F` [[cis-4,5-bis-(3-Chlorophenyl)-4,5-dihydro-1H-imidazol-2-yl]-(3,4-difluorobenzyl)-amine hydrochloride], the IC50 (read-out: IC50) is 247 nM.
As for `Fc1ccc(CNC2=N[C@@H](c3cccc(Cl)c3)[C@@H](c3cccc(Cl)c3)N2)cc1` [[cis-4,5-bis-(3-Chlorophenyl)-4,5-dihydro-1H-imidazol-2-yl]-(4-fluorobenzyl)amine hydrochloride], the IC50 (read-out: IC50) came to 318 nM.
In the case of `Clc1cccc([C@H]2NC(NCc3ccccc3)=N[C@H]2c2cccc(Cl)c2)c1` [[cis-4,5-bis-(3-Chlorophenyl)-4,5-dihydro-1H-imidazol-2-yl]-benzylamine hydrochloride], the IC50 (read-out: IC50) stood at 433 nM.
On to `Fc1cccc([C@H]2NC(NCc3ccc(F)c(F)c3)=N[C@H]2c2cccc(F)c2)c1` [[cis-4,5-bis-(3-Fluorophenyl)-4,5-dihydro-1H-imidazol-2-yl]-(3,4-difluorobenzyl)-amine hydrochloride], for which the IC50 (read-out: IC50) was found to be 71 nM.
As to `Fc1ccc(CNC2=N[C@@H](c3cccc(F)c3)[C@@H](c3cccc(F)c3)N2)cc1` [[cis-4,5-bis-(3-Fluorophenyl)-4,5-dihydro-1H-imidazol-2-yl]-(4-fluorobenzyl)amine hydrochloride], the IC50 (read-out: IC50) was 71 nM.
Regarding `Fc1cccc([C@H]2NC(NCc3ccccc3)=N[C@H]2c2cccc(F)c2)c1` [[cis-4,5-bis-(3-Fluorophenyl)-4,5-dihydro-1H-imidazol-2-yl]-benzylamine hydrochloride], for the setting “read-out: IC50”, the IC50 worked out at 90 nM.
In the case of `Cc1cccc([C@H]2NC(NCc3ccc(F)c(F)c3)=N[C@H]2c2cccc(C)c2)c1` [[cis-4,5-bis-(3-Methylphenyl)-4,5-dihydro-1H-imidazol-2-yl]-(3,4-difluorobenzyl)-amine hydrochloride], the IC50 (read-out: IC50) is 118 nM.
On the same count and under the same terms, for `Cc1cccc([C@H]2NC(NCc3cccc(F)c3)=N[C@H]2c2cccc(C)c2)c1` [[cis-4,5-bis-(3-Methylphenyl)-4,5-dihydro-1H-imidazol-2-yl]-(3-fluorobenzyl)amine hydrochloride] the value was 121 nM.
Take `Cc1cccc([C@H]2NC(NCc3ccc(F)cc3)=N[C@H]2c2cccc(C)c2)c1` [[cis-4,5-bis-(3-Methylphenyl)-4,5-dihydro-1H-imidazol-2-yl]-(4-fluorobenzyl)amine hydrochloride]: the IC50 (read-out: IC50) is 107 nM.
Regarding `Cc1cccc([C@H]2NC(NCc3ccccc3)=N[C@H]2c2cccc(C)c2)c1` [[cis-4,5-bis-(3-Methylphenyl)-4,5-dihydro-1H-imidazol-2-yl]-benzylamine hydrochloride], the IC50 (read-out: IC50) amounted to 157 nM.
